Source: patent publication US20250304952A1, “DNA ELEMENT RESPONSIVE TO EXTRACHROMOSOMAL DNA IN CANCER CELLS” (The Board of Trustees of the Leland Stanford Junior …, priority 2021, published 2025)

Columns and labels:
[1] = tested on: MYC mRNA in COLO320-HSR cells; assay: MYC RNA measured by RT-qPCR in COLO320-HSR; type: cell-based, human; conditions: 500 nM, 6 hours
Experimental: Cells were then treated for 6 hours with 500 nM JQ1 in DMSO unless otherwise indicated (Sigma-Aldrich SML1524) or an equivalent volume of DMSO.
RNA was extracted using RNeasy Plus mini Kit (QIAGEN 74136). Purified RNA was quantified by Nanodrop (Thermo Fisher). For RT-qPCR, 50 ng of RNA, 1× Brilliant II qRT-PCR mastermix with 1 μL RT/RNase block (Agilent 600825), and 200 nM forward and reverse primer were used. Each Ct value was measured using Lightcycler 480 (Roche) and each mean dCt was averaged from duplicate qRT-PCR reaction and performed in biological triplicate. Relative MYC RNA level (RT-qPCR primers MYC_exon3_fw and MYC_exon3_rv) was calculated by ddCt method compared to 18S and GAPDH controls (RT-qPCR primers GAPDH_fw, GAPDH_rv, 18S_fw, 18S_rv). P values were calculated using a Student's t-test by comparing the relative fold change of biological triplicates.
Approximately 0.6×10^6 COLO320-DM or COLO-320-HSR cells were plated in 6 well plates and cultured under standard conditions for 24 hours. Cells were then treated for 6 hours with one of the following: 500 nM JQ1 (Sigma-Aldrich SML1524), 500 nM MS645 (Sigma Aldrich SML2549), 1 μM THZ-1 (Selleck chemicals S7549), 20 μM SGC-SCP30 (Selleck chemicals S7256), 10 μM OICR-9429 (Selleck chemicals S7833), 50 μM MI-3 (Selleck chemicals S7619), 2 μM trichostatin A (Selleck chemicals S1045), or DMSO. […]

ecDNA hubs in COLO320-DM = assay: ecDNA clustering by interphase DNA FISH, autocorrelation g(r); type: cell-based, human; conditions: 500 nM, 6 hours
Description: The Oligopaint FISH probe libraries were constructed as described previously 51 Each oligo consists of a 40 nucleotide (nt) homology to the hg19 genome assemble designed from the algorithm developed from the laboratory of Dr. Ting Wu (https://oligopaints.hms.harvard.edu/). Each library subpool consists of a unique sets of primer pairs for orthogonal PCR amplification and a 20 nt T7 promoter sequence for in vitro transcription and a 20 nt region for reverse transcription. Individual Oligopaint probes were generated by PCR amplification, in vitro transcription, and reverse transcription, in which ssDNA oligos conjugated with ATTO488 and ATTO647 fluorophores were introduced during the reverse transcription step. The Oligopaint covered genomic regions (hg19) used in this study are as follows: chr8: 116967673-118566852 (hg19_COLO_nonecDNA_1.5Mbp), chr8: 127435083-129017969 (hg19_COLO_ecDNA_1.5Mbp), chr8: 128729248-128831223 (hg19_PC3_ecDNA1_100 kb). A ssDNA oligo pool was ordered and synthesized from Twist Bioscience (San Francisco, CA). 15 mm #1.5 round glass coverslips (Electron Microscopy Sciences) were pre-rinsed with anhydrous ethanol for 5 min, air dried, and coated with L-poly lysine solution (100 μg/mL) for at least 2 hours. Fully dissociated ColoDM320 or PC3 cells were seeded onto the coverslips and recovered for at least 6 hours before experiments. Cells were fixed with 4% (v/v) methanol free paraformaldehyde diluted in 1×PBS at room temperature for 10 min. Then cells were washed 2× with 1×PBS and permeabilized in 0.5% Triton-X100 in 1×PBS for 30 min. After 2× wash in 1×PBS, cells were treated with 0.1M HCl for 5 min, followed by 3× washes with 2×SSC and 30 min incubation in 2×SSC+0.1% Tween20 (2×SSCT)+50% (v/v) formamide (EMD Millipore, cat #S4117). […]
To analyze the clustering of ecDNAs, we applied the autocorrelation function as described previously58 in Matlab (2019). g(r) estimates the probability of detecting another ecDNA signal at increasing distances from the viewpoint of an index ecDNA signal and is equal to 1 for a uniform, random distribution. Specifically, the pair auto-correlation function g(r^→) was calculated by the fast Fourier transform (FFT) method described by the equations below.
N(r^→) is the auto-correlation of a mask matrix that has the value of 1 inside the nucleus used for normalization. […] Autocorrelation functions were calculated first by converting the Cartesian coordinates to polar coordinates by Matlab cart2pol( ) function, binning by radius and by averaging within the assigned bins. […]

Cc1sc2c(c1C)C(c1ccc(Cl)cc1)=N[C@@H](CC(=O)OC(C)(C)C)c1nnc(C)n1-2 [JQ1]
MYC mRNA level [1]: no significant effect | ecDNA hub clustering (interphase DNA FISH, autocorrelation g(r)) (ecDNA hubs in COLO320-DM): dispersed ecDNA hubs
